Reference: patent US5830903A, “Triazole substituted quinoline derivatives for gastrointestinal treat-treatment” (Alkaloida Chemical Co., Ltd., priority 1993, dated 1998)
Where two headings read alike, the source gives them in different places. Marks after values point to notes of the source that are not given here. Blank lines part the entries; values can stand above or below the compound they belong to.

Assays:
[1] = test system: lesions caused by the NSAID naproxen; experiment: Naproxen-induced gastric erosions, test substance 1 hour after naproxen; type: in vivo, WISTAR rats; settings: naproxen alone 75 mg/kg po., n = 7
Method: (§1) Administration of the test substances followed 1 hour after injection. After 4 hours the animals were over-anesthesized with ether and the changes (erosions) were evaluated as in Example I.1. The size of the lesions was characterized by way of the ulcer index.

[2] = test system: lesions caused by intomethacin; experiment: Indomethacin-induced gastric lesions; type: in vivo, female OFA-rats; settings: Rattus norvegicus, po, 6 h, read-out: ED50 mg/kg (p.o.)
Method: The compounds were administered in a volume of 0.5 ml/100 g in a suspension prepared in water with 2-4% Tween-80. After 6 hours the animals were over-anesthesized and their stomachs were opened along the greater curvature. The preparations were investigated by stereomicroscopy using an 8-fold enlargement. The number, size and incidence of erosions and ulcers was noted and compared with the control group treated with the carrier only.
The size of the ulcers was determined on the basis of the following score:
1: ulcer or erosion of the size of 1-2 mm;
2: ulcer or erosion of the size of 2-3 mm;
3: ulcer or erosion of the size of 3-4 mm;
4: ulcer longer than 4 mm;
5: ulcer longer and broader than 4 mm.
The ED50 values were calculated on the basis of ulcer-indexes:
ulcer index=/severeity of lesion x number of lesions/number of animals /n/

[3] = test system: alcohol induced increase of gastric glandular capillary permeability; experiment: Alcohol induced increase of gastric glandular capillary permeability; type: in vivo, rats; settings: 100% ethanol alone
Method: After 13 minutes 1 ml of 100% ethanol was added perorally and after further 2 minutes the stomachs were removed and their weights measured. […]

[4] = test system: stress ulcer caused by immersion; experiment: Stress ulcer caused by immersion; type: in vivo, Wistar rats; settings: for erosion inhibition % / erosion ulcus-index mm / hyperemia inhibition % / hyperemia ulcer-index mm: n = 7
Method: 30 minutes after peroral treatment with the test substance, […]. After seven hours the glandular lesions appearing in the stomach were evaluated according to the score described in Example I.1.

[5] = test system: lesions induced with hydrochloric acid and ethanol; experiment: Gastric haemorrhages induced by hydrochloric acid in ethanol (cytoprotection); type: in vivo, female rats; settings: for protection against hydrochloric acid/ethanol lesions (in words): 100 mg/kg; for average length of haemmorrhages, change in %: treated vs control
Method: The volume of treatment was 0.5 ml/100 g. […] The average degree of haemorrhages of the treated groups was compared to the control groups treated with the vehicle only. Number of animals was 6-18 in each group.

[6] = test system: ulcers induced by reserpine; experiment: Reserpine induced ulcers; type: in vivo, female OFA rats; settings: 40 mg/kg p.o.; reserpine 5 mg/kg s.c.; 18 h
Method: Female OFA rats of 130-160 g weight, starved for 24 hours, were treated at the same time perorally with 40 mg/kg doses of the substances to be tested and with 5 mg/kg s.c. doses of reserpine. After 18 hours the animals were over-anesthesized and the removed stomachs were investigated under stereomicroscope using a 8-fold enlargement. The number of ulcers was counted and their size was evaluated using 0-0.5-1-2-4-8-16-32 scores. The number of animals was 5 for each dose.

[7] = test system: lesions caused by the NSAID piroxicam; experiment: Piroxicam-induced gastric erosions, test substance 1 hour after piroxicam; type: in vivo, WISTAR rats; settings: piroxicam alone 60 mg/kg po., n = 7
Method: as §1

[8] = test system: histamine stimulated hydrochlorid acid secretion; experiment: Histamine stimulated gastric acid secretion in Shay rats; type: in vivo; settings: histamine alone 10 mg/kg s.c.
Method: The test substances were added on the course of operation intra-duodenally. Immediately after operation each rat obtained 0.50 ml s.c. of a physiological salt solution for hydration. After 4 hours the rats were over-anesthesized, the stomach liquid was collected, centrifugated and the volume determined. […] Measurement of stimulated secretion of gastric acid was also carried out according to the above method.

[9] = 60 min before 20 mg/kg indomethacin, from ulcer index, confidence limits 95%
[10] = 20.0 mg/kg p.o., control 61.3 ± 9.8 (substance 6, n = 6), 80.4 ± 8.2 (substance 11, n = 12)

SMILES: COc1ccc2cc([C@H](C)C(=O)O)ccc2c1 [naproxen, reference compound]
ulcus index ± SEM [1]: 25.2 ± 6.1

SMILES: CCc1nc(Sc2cc(C)nc3cc(C)cc(C)c23)n[nH]1 [Substance 10, 2,5,7-trimethyl-4-(5-ethyl-1H-1,2,4-triazole-3-yl-thio)-quinoline]
ED50 [2, 9]: 74 mg/kg

SMILES: Cc1cc(-n2cncn2)c2ccccc2n1 [Substance 4, 2-methyl-4-(1H-1,2,4-triazole-1-yl)-quinoline]
ED50 [2, 9]: 44 mg/kg

SMILES: Cc1cc2ccc(Br)cc2nc1-n1cncn1 [Substance 7, 2-(1H-1,2,4-triazole-1-yl)-3-methyl-7-bromo-quinoline]
ED50 [2, 9]: 34 mg/kg

SMILES: CCc1nc(Sc2nc3ccccc3cc2C)n[nH]1 [Substance 12, 2-(5-ethyl-1H-1,2,4-triazole-3-yl-thio)-3-methyl-quinoline]
ED50 [2, 9]: 74 mg/kg

SMILES: CCO [100% ethanol, reference compound]
Evans-blue [3]: 9.45 ± 0.94 µg/g | stomach [3]: 1.1 ± 0.15 g

SMILES: Cc1cc(Sc2nc[nH]n2)c2ccccc2n1 [Substance 9, 2-methyl-4-(1H-1,2,4-triazole-3-yl-thio)-quinoline]
ED50 [2, 9]: 47 mg/kg

SMILES: CCc1ccc2cc(C)c(-n3cncn3)nc2c1 [Substance 8, 2-(1H-1,2,4-triazole-1-yl)-3-methyl-7-ethyl-quinoline]
ED50 [2, 9]: 40 mg/kg

SMILES: CN/C(=N/CCSCc1nc[nH]c1C)NC#N [cimetidine, reference compound]
erosion inhibition % ([4]; 100 mg/kg p.o.): 34% | erosion ulcus-index mm ([4]; 100 mg/kg p.o.): 24.4 ± 10.0 mm | hyperemia inhibition % ([4]; 100 mg/kg p.o.): 21% | hyperemia ulcer-index mm ([4]; 100 mg/kg p.o.): 58.1 ± 10.4 mm | erosion inhibition % ([4]; 200 mg/kg p.o.): 50% | erosion ulcus-index mm ([4]; 200 mg/kg p.o.): 18.2 ± 11.2 mm | hyperemia inhibition % ([4]; 200 mg/kg p.o.): 39% | hyperemia ulcer-index mm ([4]; 200 mg/kg p.o.): 48.2 ± 14.6 mm | inhibition of hyperemia and erosion (in words) ([4]; substance 1 at 50 mg/kg p.o., cimetidine): no significant inhibition | ED50 [2]: 96 mg/kg | protection against hydrochloric acid/ethanol lesions (in words) [5]: practically ineffective | protection against hydrochloric acid/ethanol lesions (in words) ([5]; listed as Cimetidin): practically inactive | average length of haemmorrhages, treated ([5]; 300 mg/kg p.o., n = 16, control 74.8 ± 6.4): 64.2 ± 12.3 mm | average length of haemmorrhages, change in % ([5]; 300 mg/kg p.o.): -24%

SMILES: Cc1cc2ccccc2nc1-n1cncn1 [Substance 6, 2-(1H-1,2,4-triazole-1-yl)-3-methyl-quinoline]
ED50 [2, 9]: 29 mg/kg | number of ulcers, %change compared with control [6]: +17% | severity of ulcers, %change compared with control [6]: -5% | ulcers per treated [6]: 5/5 | average length of haemmorrhages, treated [5, 10]: 48.0 ± 10.3 mm | average length of haemmorrhages, change in % ([5]; 20.0 mg/kg p.o.): -22%

SMILES: Cc1ccc2c(-n3cncn3)ccnc2c1 [Substance 3, 4-(1H-1,2,4-triazole-1-yl)-7-methyl-quinoline]
ED50 [2, 9]: 74 mg/kg

SMILES: c1ccc2nc(-n3cncn3)ccc2c1 [Substance 5, 2-(1H-1,2,4-triazole-1-yl)-quinoline]
ED50 [2, 9]: 38 mg/kg

ulcus index ± SEM [7]: 23.3 ± 6.4
SMILES: CN1C(C(=O)Nc2ccccn2)=C(O)c2ccccc2S1(=O)=O [piroxicam, reference compound]

SMILES: Cc1cc2ccccc2nc1Sc1nc[nH]n1 [Substance 11, 2-(1H-1,2,4-triazole-3-yl-thio)-3-methyl-quinoline]
ED50 [2, 9]: 14 mg/kg | number of ulcers, %change compared with control [6]: +67% | severity of ulcers, %change compared with control [6]: +37% | ulcers per treated [6]: 5/5 | average length of haemmorrhages, treated [5, 10]: 51.8 ± 10.0 mm | average length of haemmorrhages, change in % ([5]; 20.0 mg/kg p.o.): -36%

SMILES: Clc1ccc2c(-n3cncn3)ccnc2c1 [Substance 2, 4-(1H-1,2,4-triazole-1-yl)-7-chloro-quinoline]
ED50 [2, 9]: 53 mg/kg

SMILES: NCCc1c[nH]cn1 [histamine, reference compound]
acid secretion μEqu/4^h [8]: 1477 ± 80 μEqu/4^h | acidity μEqu/ml [8]: 237 ± 18 μEqu/ml | volume/4^h [8]: 6.3 ± 0.7 mL
